Test results published in patent publication US20080039453A1, “Enantiomerically pure R-etifoxine, pharmaceutical compositions thereof and methods of their use” (priority 2006, published 2008).

Columns and labels:
[1] = tested on: human GABAA receptor subunits (α1β1-3γ2L GABAA receptors); assay: Modulation of GABA-evoked currents in Xenopus oocytes (2-electrode clamp), GABA subunit selectivity; type: cell-based; conditions: for GABA subunit selectivity: modulation of GABA EC10-evoked currents in Xenopus oocytes expressing α1β1-3γ2L, FIGS. 4A and 4B
Description: GABA subunit selectivity of etifoxine enantiomers was measured based on their ability to modulate the GABA-evoked currents in Xenopus oocytes.
Receptor mRNA preparation: cDNA clones encoding human GABAA receptor subunits were obtained from commercial sources. mRNA was prepared using conventional techniques with commercially-available “mMessage machine” kits (Ambion). Individual mRNAs (˜1 μg/μL) were stored in aliquots at −80° C.
mRNA injections into Xenopus oocytes: Preparation and micro-injection of oocytes were performed as reported in detail previously (see, Whittemore et al., 1996, Mol Pharmacol 50: 1364-1375). Individual oocytes were injected with 5-50 ng of mRNA at 5:1:1 (GABA). For example, individual oocytes were injected with a 5:1:1 mixture of α1, β1-3, and γ2L (˜5-50 ng of each subunit per cell) to produce expression of α1β1-3γ2L GABAA receptors. Following injections, oocytes were maintained at 16-17° C. in Barth's medium containing (in mM): NaCl, 88; KCl, 1; CaCl2, 0.41; Ca(NO3)2, 0.33; MgSO4, 0.82; NaHCO3, 2.4; HEPES 5; pH=7.4, with 0.1 mg/ml gentamycin sulfate.
Oocyte Electrophysiological recordings: Individual oocytes were placed on a nylon mesh in a 35 mm dish, perfused with frog Ringer (see, Whittemore et al., supra), and voltage clamped at a holding potential of −70 mV. In some cases, simple voltage steps were made to test voltage-dependence. Oocytes were perfused with fresh Ringer or exposed to GABA ±modulators using a custom-made gravity-driven perfusion system consisting of a linear array of 3 capillary tubes. The concentration of GABA used to evoke control currents was adjusted for each individual oocyte to be 10% of the maximal current (EC10) measured in that cell. The concentration of GABA required to evoke EC10 ‘control’ currents varied between ˜2 and 12 μM. […] Data are expressed as % of control currents (% modulation=100*[(modulated current/GABA control current)−1].

[2] = tested on: mouse formalin pain model; assay: Mouse formalin pain model (late phase licking); type: in vivo; conditions: male NSA mice, 60 mg/kg i.p., 30 minutes prior to formalin; FIG. 5
Description: The analgesic effect of test compounds was assessed in a mouse formalin pain model (Hole et al., 1993, Pain 53:247-254). Male NSA mice weighing between 27 and 30 g were housed with access to food and water ad libitum until the test date. On the day of testing, they were given a period of 1 h to adjust to the test chamber. Test compounds or vehicle control (75% polyethylene glycol in 5% dextrose+water) were administered i.p. at 30 minutes prior to the administration of formalin. A solution of 20 μl of 2.5% formalin was then injected subcutaneously into the dorsal side of the hind paw of the test mouse. Immediately following formalin injection, the mice were observed over the next 50 min and the time spent licking the injected hind paw was recorded. The observation time was broken down into 5 minute “bins”, with 10 bins in total. The first 5-min bin is the early phase, considered to be reflective of acute pain. Bins three to ten make up the late phase, considered a measure of chronic inflammatory pain. The results for the late phase are expressed as the averaged mean time (in seconds) that mice spent licking in a 5-min period.
Dose-response relationship was conducted in the range of 3 to 60 mg/kg. Statistical differences in response were determined by one-way analysis of variance with the Dunnett's post-hoc test by using the Prism3 statistical software (GraphPad, Inc., San Diego, Calif.).

Compound | GABA subunit selectivity [1] | analgesic effect in the formalin test (late phase licking) [2] | selectivity for β2 subunit versus β1 subunit ([1]; modulation of GABA EC10-evoked currents in Xenopus oocytes, FIG. 4B)
CCNC1=Nc2ccc(Cl)cc2C(C)(c2ccccc2)O1 (single isomer, unassigned) [R-etifoxine, 6-chloro-2-(ethylamino)-4-methyl-4-phenyl-4H-3,1-benzoxazine] | little or no GABA subunit selectivity | active | 
CCNC1=Nc2ccc(Cl)cc2C(C)(c2ccccc2)O1 (single isomer, unassigned) [S-etifoxine, 6-chloro-2-(ethylamino)-4-methyl-4-phenyl-4H-3,1-benzoxazine] | shows selectivity for GABA receptor comprising β subunit |  | more selective for β2 subunit than β1 subunit
